Results from patent EP0612525B1, “Transdermal treatment with mast cell degranulating agents for drug-induced hypersensitivity” (BRISTOL-MYERS SQUIBB COMPANY, priority 1993, dated 1994).
“And” between values parts separate entries of the source, which are not always exact repeats. Equal values may be shown once.

How the values were obtained:
[1] = Percutaneous permeation of urocanic acid isomers through human cadaver skin (Franz cell diffusion chambers); type: in vitro ADME; conditions: in words
Description: Skin permeation experiments were undertaken to measure the flux of cis-UCA and the trans-UCA) through human skin. This information is required for topical delivery of cis-UCA using a TDS.
cis-UCA was prepared by ultraviolet irradiation of solutions of trans-UCA (obtained from Sigma Chemical Co., St. Louis, MO), as described above (see Example 1 above).
For skin permeation experiments, human cadaver skin was obtained and sectioned on a dermatome to yield a partial thickness skin of about 400 µm. Partial thickness skin samples were transferred to standard Franz cell diffusion chambers with the stratum corneum side up, and equilibrated with phosphate buffered saline (PBS) at pH 7.2. at 35°C in standard thermal blocks (Pierce Reacti-Therm).
Three different solution of UV-irradiated UCA were prepared. All samples were mixtures of both cis-UCA and trans-UCA, contained about between 55% to 67% cis-UCA. The three different solutions (0.5 ml) were applied to the skin samples in the donor chamber of the diffusion chamber, and fractions of the receptor solution (saline) were collected and the amount of cis and trans isomers that permeated through the skin determined by standard HPLC methods. […] The tissue extracts were neutralized and aliquots analyzed by HPLC.

BALB/c female mice [2] = test: Contact hypersensitivity, TNBS sensitization / TNCB ear challenge (ear swelling); type: in vivo; conditions: for % SUPPRESSION: TNBS 35 µg
Description: BALB/c female mice were maintained in a specific pathogen-free colony. Age-matched mice between 8 and 12 weeks of age were maintained in filter-protected cages and fed mouse chow and water ad libitum. Lighting was controlled to provide 12 hours light-dark cycles.
A 7% (w/v) working solution of trinitrobenzene sulfonate (TNBS) was prepared in distilled water. […] For induction of sensitization, each of 5 Balb/c mice received epicutaneous application of 35 µg of TNBS via a Hilltop chamber for 5 hours.
A contact hypersensitivity response was elicited on day 5 by challenging the right ear of each mouse with 20 µl of 1% trinitronchlorobenzene (TNCB) (in acetone). Ear thickness was measured with a spring-loaded caliper immediately before challenge, and at 24 and 48 hours after challenge. Ear thickness was measured in mm X 10^-3.
The statistical significance of differences in the contact hypersensitivity response between control and treated mice was determined using Student's t test for two independent variables. Each group contained five mice. Negative control mice were treated for 24 hours with 100 µl of PBS, pH 5.5, and challenged on the right ear 5 days later with 20 µl of 1% TNCB.
The mice were then epicutaneously sensitized with 100 µl of 0.035% TNBS (w/v) in PBS, pH 5.5.
For pretreatment plus co-administration, mice were first pretreated for 24 hours as above. Thereafter, 6000 µg of UCA (100 µl of 6% solution, 60 mg/ml in PBS pH 5.5) were placed in the Hilltop chamber along with 35 µg of TNBS.
Sensitization with TNBS was induced as described above.

BALB/c female mice [3] = test: as above; type: in vivo
[4] = In vitro drug permeation from plastisol patches through human skin (paper example); type: in vitro ADME
Balb/c mice [5] = test: Contact hypersensitivity, DNCB sensitization / DNCB ear challenge (ear swelling); type: in vivo
Balb/c mice [6] = test: Immune tolerance induction: re-sensitization with DNCB at a second skin site and re-challenge; type: in vivo; conditions: for EAR THICKNESS: DNCB 100 µg re-sensitization day 22, 24 Hours after re-challenge; for % SUPPRESSION / EAR SWELLING: DNCB day 22, 24 Hours
Description: To induce immune tolerance, Balb/c mice were treated with CUA in gel formulation as outlined above and a sensitization response elicited in the standard manner. Two weeks later, the previously sensitized mice were re-sensitized by applying 10 µl of 1% DNCB to a second skin site on shaved backs of both control (non-sensitized) and experimental (immunosuppressed by prior treatment with CUA) mice. Both control and experimental animals were challenged 5 days later by application of 20 µl of 1% DNCB to the left ear; ear thickness measurements were made 24 hours later.
Balb/c mice (N=8) were pretreated for 24 hours with 1% CUA in HPMC gel or 5% CUA in HPMC gel on the shaved abdominal skin (site 1), and challenged on the right ear five days later. The CUA-treated mice were immunosuppressed as shown in Table X. The same mice were re-sensitized with DNCB on a demarcated area of their shaved backs and rechallenged five days later on their left ears, and the ear thickness measured 24 hours post-challenge.

inflamed skin = test: Anti-inflammatory effect on bee-sting inflamed skin (single human subject); type: in vivo
Description: A subject was stung by a bee on the medial aspect of the lower portion of the right leg. Within one hour the skin site surrounding the bite became inflamed and an allergic reaction of the delayed hypersensitivity type was seen 24 hours later. […] This response persisted for several days.
The affected area was treated by application of 2% cis-UCA in a gel formulation (hydroxylpropylmethyl cellulose) to a 2-3 cm^2 area of inflamed skin. For a control, a similarly sized area of inflamed skin received the same hydroxylpropylmethyl cellulose gel without cis-UCA. Both treated areas were covered with a transparent dressing.

dermal mast cells = test: Chymase depletion from mast cells in skin organ cultures (immunohistochemical staining); type: cell-based
Description: Chymase is a proteolytic enzyme with chymotrypsin activity that is released from dermal mast cells upon degranulation. The enzyme has been implicated in proteolytic breakdown of endothelial cell basement membrane matrix proteins and to thereby facilitate leukocyte diapedesis. The release of chymase from mast cells was detected as a depletion of chymase-specific immunohistochemical staining observed in cryosections of the dermis in skin organ cultures. As a positive control 5 mM of morphine sulfate (MSO4 + ctrl) was added to the culture medium bathing the skin organ cultures. The negative control was untreated culture medium (SCM-ctrl). Cis-urocanic acid was added to the culture medium at 1 µg/ml and 10 µg/ml.

[7] = 2 mg (1%) HPMC gel pretreat, DNCB 100 µg, 24 Hours
[8] = 2 mg (1%) HPMC gel pretreat, DNCB 100 µg, 72 Hours
[9] = 10 mg (5%) HPMC gel pretreat, DNCB 100 µg, 24 Hours
[10] = 10 mg (5%) HPMC gel pretreat, DNCB 100 µg, 72 Hours
[11] = 5 Hours Pretreat 15 mg + DNCB 100 µg, 24 Hours
[12] = 5 Hours Pretreat 15 mg + DNCB 100 µg, 48 Hours
[13] = 24 Hours Pretreat 10 mg, then DNCB gel 100 µg, 24 Hours
[14] = 24 Hours Pretreat 10 mg, then DNCB gel 100 µg, 48 Hours
[15] = 24 Hours Pretreat 15 mg + DNCB 100 µg, 24 Hours
[16] = 24 Hours Pretreat 15 mg + DNCB 100 µg, 48 Hours
[17] = Co-Delivery, 10 mg + DNCB 100 µg, 24 Hours
[18] = Co-Delivery, 10 mg + DNCB 100 µg, 48 Hours

## O=C(O)/C=C/c1cnc[nH]1 [trans-UCA, trans-urocanic acid, reference compound]
[1]
  fluxes through human skin (comparison of isomers): comparable fluxes
BALB/c female mice [2]; other experiments, compared with cis-UCA
  suppressive activity on contact sensitization (in words): much less suppressive activity

## O=C(O)c1cc(=O)c2c(OCC(O)COc3cccc4oc(C(=O)O)cc(=O)c34)cccc2o1 [sodium cromolyn, reference compound]
BALB/c female mice [3]; 20 µg intradermally
  suppression of contact sensitization (in words): failed to suppress contact sensitization
BALB/c female mice [3]; 20 µg intradermally, 24 and 48 hours together
  enhancement in the contact sensitivity response: 14-17%
BALB/c female mice [3]; 20 µg intradermally, TNBS 2.45 mg, 24 Hours
  % SUPPRESSION: +14.1%
BALB/c female mice [3]; 20 µg intradermally, TNBS 2.45 mg, 48 Hours
  % SUPPRESSION: +17.0%

## CCCCCCCC/C=C\CCCCCCCC(=O)O [oleic acid]
[4]
  permeation rate of ISDN: significantly enhances

## CCN(CC)CCCC(C)Nc1ccnc2cc(Cl)ccc12 (stereo not drawn) [chloroquine, Chloroquine, reference compound]
BALB/c female mice [3]; 200 µg intradermally, TNBS 2.45 mg, 24 Hours
  % SUPPRESSION: 39.6%
BALB/c female mice [3]; 200 µg intradermally, TNBS 2.45 mg, 48 Hours
  % SUPPRESSION: 46.5%

## O=C(O)/C=C\c1c[nH]cn1 [cis-UCA, cis-urocanic acid]
[1]
  fluxes through human skin (comparison of isomers): comparable fluxes
BALB/c female mice [2]; intradermal injection 200 µg, 24 Hours
  % SUPPRESSION: 48% and 48.4%
BALB/c female mice [2]; intradermal injection 200 µg, 48 Hours
  % SUPPRESSION: 32% and 31.6%
BALB/c female mice [2]; pretreatment + co-administration, 24 Hours
  % SUPPRESSION: 53%
BALB/c female mice [2]; pretreatment only, 6% UCA PBS pH 5.5, 24 Hours
  % SUPPRESSION: 68%
Balb/c mice [5]; [7]
  % SUPPRESSION: 71%
  EAR SWELLING: 26 mm X 10^3
Balb/c mice [5]; [8]
  EAR SWELLING: 48 mm X 10^3
  EAR THICKNESS: 288 ± 23 mm X 10^3
Balb/c mice [5]; 2 mg (1%) HPMC gel, 24 h pretreatment, DNCB 100 µg, 24 Hours
  EAR THICKNESS: 270 ± 16 mm X 10^3
Balb/c mice [5]; [9]
  % SUPPRESSION: 80%
  EAR SWELLING: 18 mm X 10^3
  EAR THICKNESS: 261 ± 15 mm X 10^3
Balb/c mice [5]; [10]
  % SUPPRESSION: 59%
  EAR SWELLING: 30 mm X 10^3
  EAR THICKNESS: 270 ± 15 mm X 10^3
Balb/c mice [5]; 5 Hours Pretreat 15 mg (7.5% gel) + DNCB 100 µg, 24 Hours
  EAR THICKNESS: 285 ± 27 mm X 10^3
Balb/c mice [5]; [11]
  % SUPPRESSION: 46%
  EAR SWELLING: 42 mm X 10^3
Balb/c mice [5]; [12]
  % SUPPRESSION: 27%
  EAR SWELLING: 42 mm X 10^3
  EAR THICKNESS: 284 ± 20 mm X 10^3
Balb/c mice [5]; 24 Hours Pretreat 10 mg (5% gel), then DNCB gel 100 µg, 24 Hours
  EAR THICKNESS: 260 ± 19 mm X 10^3
Balb/c mice [5]; [13]
  % SUPPRESSION: 52%
  EAR SWELLING: 29 mm X 10^3
Balb/c mice [5]; [14]
  % SUPPRESSION: 69%
  EAR SWELLING: 20 mm X 10^3
  EAR THICKNESS: 259 ± 12 mm X 10^3
Balb/c mice [5]; 24 Hours Pretreat 15 mg (7.5% gel) + DNCB 100 µg, 24 Hours
  EAR THICKNESS: 288 ± 25 mm X 10^3
Balb/c mice [5]; [15]
  % SUPPRESSION: 59%
  EAR SWELLING: 47 mm X 10^3
Balb/c mice [5]; [16]
  % SUPPRESSION: 54%
  EAR SWELLING: 36 mm X 10^3
  EAR THICKNESS: 276 ± 14 mm X 10^3
Balb/c mice [5]; Co-Delivery, 10 mg (5% gel) + DNCB 100 µg, 24 Hours
  EAR THICKNESS: 277 ± 27 mm X 10^3
Balb/c mice [5]; [17]
  % SUPPRESSION: not statistically significant
  EAR SWELLING: 39 mm X 10^3
Balb/c mice [5]; Co-Delivery, 10 mg + DNCB 100 µg, 24 Hours, listed as UCA
  % SUPPRESSION: 28%
Balb/c mice [5]; [18]
  % SUPPRESSION: 29%
  EAR SWELLING: 43 mm X 10^3
  EAR THICKNESS: 273 ± 23 mm X 10^3
Balb/c mice [6]; 2 mg (1% HPMC gel) day -1
  EAR THICKNESS: 327 ± 60 mm X 10^3
Balb/c mice [6]; 2 mg day -1
  % SUPPRESSION: 51%
  EAR SWELLING: 70 mm X 10^3
Balb/c mice [6]; 10 mg (5% HPMC gel) day -1
  EAR THICKNESS: 334 ± 17 mm X 10^3
Balb/c mice [6]; 10 mg day -1
  % SUPPRESSION: 42%
  EAR SWELLING: 84 mm X 10^3
Inflamed skin; 2% gel, 14 hours after initiation of treatment
  appearance of treated skin site: depressed (appearing normal) and lacked any red color
Inflamed skin; 2% in hydroxylpropylmethyl cellulose gel, 2-3 cm^2 area, approximately 1 hour after application
  erythema and induration of inflamed skin: erythema and induration disappeared
Dermal mast cells; 1 µg/ml in culture medium
  chymase positive mast cell per mm^2: 22 ± 20 per mm^2
Dermal mast cells; 10 µg/ml in culture medium
  chymase positive mast cell per mm^2: 20 ± 10 per mm^2
BALB/c female mice [3]; 200 µg, 24 hours before TNBS 3.5 mg, 24 hours after challenge
  % SUPPRESSION: 36%
BALB/c female mice [3]; 600 µg, 24 hours before TNBS 3.5 mg, 24 hours after challenge
  % SUPPRESSION: 63%
BALB/c female mice [3]; pretreatment + co-administration, TNBS 35 µg, 24 Hours
  % SUPPRESSION: 52.8%
BALB/c female mice [3]; pretreatment + co-administration, TNBS 35 µg, 48 Hours
  % SUPPRESSION: 56%
BALB/c female mice [3]; pretreatment + co-administration, TNBS 35 µg, 48 Hours, listed as cis-UROCANIC ACID
  % SUPPRESSION: 55.8%
BALB/c female mice [3]; pretreatment only, 6% UCA PBS pH 5.5, TNBS 35 µg, 24 Hours
  % SUPPRESSION: 68.3%
BALB/c female mice [3]; pretreatment only, 6% UCA PBS pH 5.5, TNBS 35 µg, 48 Hours
  % SUPPRESSION: 77%
BALB/c female mice [3]; pretreatment only, 6% UCA PBS pH 5.5, TNBS 35 µg, 48 Hours, listed as cis-UROCANIC ACID
  % SUPPRESSION: 77.2%

## CN1CC[C@]23c4c5ccc(O)c4O[C@H]2[C@@H](O)C=C[C@H]3[C@H]1C5.O=S(=O)(O)O [morphine sulfate, reference compound]
Dermal mast cells; 5 mM in culture medium, positive control
  chymase positive mast cell per mm^2: 37 ± 15 per mm^2
